Test results from PubChem BioAssay (NCI).
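Assay format: 96-well plates, 48-hour exposure. Here, GI50 denotes the concentration required for 50% inhibition of growth. TGI: total growth inhibition.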

Assays:
Assay in all cases: DTP human tumour cell line panel, 48 h
786-0 renal = test system: 786-0 renal
A498 renal = test system: A498 renal
A549 NSCLC = test system: A549 NSCLC
ACHN renal = test system: ACHN renal
BT-549 breast = test system: BT-549 breast
CAKI-1 renal = test system: CAKI-1 renal
COLO 205 colon = test system: COLO 205 colon
DU-145 prostate = test system: DU-145 prostate
EKVX NSCLC = test system: EKVX NSCLC
HCC-2998 colon = test system: HCC-2998 colon
HCT-116 colon = test system: HCT-116 colon
HCT-15 colon = test system: HCT-15 colon
HL-60(TB) leukemia = test system: HL-60(TB) leukemia
HOP-62 NSCLC = test system: HOP-62 NSCLC
HOP-92 NSCLC = test system: HOP-92 NSCLC
HS 578T breast = test system: HS 578T breast
HT29 colon = test system: HT29 colon
IGROV1 ovarian = test system: IGROV1 ovarian
KM12 colon = test system: KM12 colon
LOX IMVI melanoma = test system: LOX IMVI melanoma
M14 melanoma = test system: M14 melanoma
MALME-3M melanoma = test system: MALME-3M melanoma
MCF7 breast = test system: MCF7 breast
MDA-MB-435 = test system: MDA-MB-435
NCI-H226 lung = test system: NCI-H226 lung
NCI-H23 lung = test system: NCI-H23 lung
NCI-H522 lung = test system: NCI-H522 lung
NCI/ADR-RES ovarian = test system: NCI/ADR-RES ovarian
OVCAR-3 ovarian = test system: OVCAR-3 ovarian
OVCAR-4 ovarian = test system: OVCAR-4 ovarian
OVCAR-5 ovarian = test system: OVCAR-5 ovarian
OVCAR-8 ovarian = test system: OVCAR-8 ovarian
PC-3 prostate = test system: PC-3 prostate
RXF 393 renal = test system: RXF 393 renal
SF-268 CNS = test system: SF-268 CNS
SF-295 CNS = test system: SF-295 CNS
SF-539 CNS = test system: SF-539 CNS
SK-MEL-2 melanoma = test system: SK-MEL-2 melanoma
SK-MEL-28 melanoma = test system: SK-MEL-28 melanoma
SK-MEL-5 melanoma = test system: SK-MEL-5 melanoma
SK-OV-3 ovarian = test system: SK-OV-3 ovarian
SN12C renal = test system: SN12C renal
SNB-19 CNS = test system: SNB-19 CNS
SNB-75 CNS = test system: SNB-75 CNS
SW-620 colon = test system: SW-620 colon
T-47D breast = test system: T-47D breast
TK-10 renal = test system: TK-10 renal
U251 CNS = test system: U251 CNS
UACC-257 melanoma = test system: UACC-257 melanoma
UO-31 renal = test system: UO-31 renal

With COc1ccc(Nc2nccc(Nc3ccc4[nH]ncc4c3)n2)cc1 the GI50 (786-0 renal) was 1.74 µM, the TGI (786-0 renal) was 4.75 µM and the GI50 (A498 renal) was 4.62 µM. The TGI (A498 renal) was 17.2 µM, the GI50 (A549 NSCLC) was 3.46 µM and the TGI (A549 NSCLC) was 14.3 µM. It also gave a GI50 (ACHN renal) of 2.89 µM, a TGI (ACHN renal) of 11.7 µM and a GI50 (BT-549 breast) of 3.22 µM. The TGI (BT-549 breast) was 12.1 µM, the GI50 (CAKI-1 renal) was 2.22 µM and the TGI (CAKI-1 renal) was 14.9 µM. For the same compound, the GI50 (COLO 205 colon) was 2.59 µM, the TGI (COLO 205 colon) was 7.21 µM and the GI50 (DU-145 prostate) was 3.31 µM. For the same compound, the TGI (DU-145 prostate) was 12.9 µM, the GI50 (EKVX NSCLC) was 5 µM and the TGI (EKVX NSCLC) was 17.9 µM. It also gave a GI50 (HCC-2998 colon) of 2.88 µM, a TGI (HCC-2998 colon) of 8.05 µM and a GI50 (HCT-116 colon) of 2.06 µM. It also gave a TGI (HCT-116 colon) of 4.91 µM, a GI50 (HCT-15 colon) of 1.9 µM and a TGI (HCT-15 colon) of 4.28 µM. It also gave a GI50 (HL-60(TB) leukemia) of 2.05 µM, a TGI (HL-60(TB) leukemia) of 4.67 µM and a GI50 (HOP-62 NSCLC) of 2.27 µM. It also gave a TGI (HOP-62 NSCLC) of 5.75 µM, a GI50 (HOP-92 NSCLC) of 3.13 µM and a TGI (HOP-92 NSCLC) of 12.9 µM. The GI50 (HS 578T breast) was 5.02 µM, the TGI (HS 578T breast) was > 100 µM and the GI50 (HT29 colon) was 2.36 µM. The TGI (HT29 colon) was 8.33 µM, the GI50 (IGROV1 ovarian) was 3.36 µM and the TGI (IGROV1 ovarian) was 25.1 µM. It also gave a GI50 (KM12 colon) of 3.45 µM, a TGI (KM12 colon) of 24.2 µM and a GI50 (LOX IMVI melanoma) of 1.92 µM. It also gave a TGI (LOX IMVI melanoma) of 3.87 µM, a GI50 (M14 melanoma) of 2.39 µM and a TGI (M14 melanoma) of 6.15 µM. The GI50 (MALME-3M melanoma) was 3.27 µM, the TGI (MALME-3M melanoma) was 15.9 µM and the GI50 (MCF7 breast) was 2.05 µM. It also gave a TGI (MCF7 breast) of 5.36 µM, a GI50 (MDA-MB-435) of 2.1 µM and a TGI (MDA-MB-435) of 5.7 µM. For the same compound, the GI50 (NCI-H226 lung) was 2.3 µM, the TGI (NCI-H226 lung) was 5.77 µM and the GI50 (NCI-H23 lung) was 2.35 µM. It also gave a TGI (NCI-H23 lung) of 6.27 µM, a GI50 (NCI-H522 lung) of 1.86 µM and a TGI (NCI-H522 lung) of 4.77 µM. The GI50 (NCI/ADR-RES ovarian) was 2.18 µM, the TGI (NCI/ADR-RES ovarian) was 5.75 µM and the GI50 (OVCAR-3 ovarian) was 3.15 µM. For the same compound, the TGI (OVCAR-3 ovarian) was 10.6 µM, the GI50 (OVCAR-4 ovarian) was 2.99 µM and the TGI (OVCAR-4 ovarian) was 11.8 µM. The GI50 (OVCAR-5 ovarian) was 3.33 µM, the TGI (OVCAR-5 ovarian) was > 100 µM and the GI50 (OVCAR-8 ovarian) was 2.24 µM. It also gave a TGI (OVCAR-8 ovarian) of 5.39 µM, a GI50 (PC-3 prostate) of 2.21 µM and a TGI (PC-3 prostate) of 7.2 µM. It also gave a GI50 (RXF 393 renal) of 1.98 µM, a TGI (RXF 393 renal) of 6.45 µM and a GI50 (SF-268 CNS) of 4.2 µM. It also gave a TGI (SF-268 CNS) of 28.6 µM, a GI50 (SF-295 CNS) of 3.78 µM and a TGI (SF-295 CNS) of 13.8 µM. For the same compound, the GI50 (SF-539 CNS) was 4.38 µM, the TGI (SF-539 CNS) was 16.8 µM and the GI50 (SK-MEL-2 melanoma) was 2.4 µM. It also gave a TGI (SK-MEL-2 melanoma) of 6.39 µM, a GI50 (SK-MEL-28 melanoma) of 3.64 µM and a TGI (SK-MEL-28 melanoma) of 16.5 µM. It also gave a GI50 (SK-MEL-5 melanoma) of 2.01 µM, a TGI (SK-MEL-5 melanoma) of 4.75 µM and a GI50 (SK-OV-3 ovarian) of 7.04 µM. The TGI (SK-OV-3 ovarian) was 21.7 µM, the GI50 (SN12C renal) was 3.92 µM and the TGI (SN12C renal) was > 100 µM. For the same compound, the GI50 (SNB-19 CNS) was 4.3 µM, the TGI (SNB-19 CNS) was 87 µM and the GI50 (SNB-75 CNS) was 4.58 µM. For the same compound, the TGI (SNB-75 CNS) was 20.3 µM, the GI50 (SW-620 colon) was 3.31 µM and the TGI (SW-620 colon) was > 100 µM. For the same compound, the GI50 (T-47D breast) was 1.77 µM, the TGI (T-47D breast) was 5.42 µM and the GI50 (TK-10 renal) was 2.45 µM. The TGI (TK-10 renal) was 9.55 µM, the GI50 (U251 CNS) was 3.61 µM and the TGI (U251 CNS) was 13.6 µM. For the same compound, the GI50 (UACC-257 melanoma) was 5.41 µM, the TGI (UACC-257 melanoma) was 16.9 µM and the GI50 (UO-31 renal) was 2.12 µM. For the same compound, the TGI (UO-31 renal) was 11.4 µM.
